Experimental data published in US20200405696A1, “INHIBITORS OF INDOLEAMINE 2,3-DIOXYGENASE AND/OR TRYPTOPHAN 2,3-DIOXYGENASE” (IDORSIA PHARMACEUTICALS LTD, priority 2018, published 2020).

How the values were obtained:
[1] = target: T1, Recombinant human TDO comprising amino acids 19-407 (Homo sapiens, UniProt P48775); experiment: TDO2 enzymatic assay (NFK quantified by LCMS); assay type: biochemical; settings: 15 nM enzyme, 200 μM L-tryptophan, pH7, 30 minutes pre-incubation at RT; mean values when measured multiple times; read-out: hTDO activity (IC50 in nM)
T1 construct: Recombinant human TDO comprising amino acids 19-407 with a N-terminal hexahistidine tag; hexahistidine (His6) (N); made in house; host or cells: E. coli
T1 sequence (P48775 19-406 limits assumed): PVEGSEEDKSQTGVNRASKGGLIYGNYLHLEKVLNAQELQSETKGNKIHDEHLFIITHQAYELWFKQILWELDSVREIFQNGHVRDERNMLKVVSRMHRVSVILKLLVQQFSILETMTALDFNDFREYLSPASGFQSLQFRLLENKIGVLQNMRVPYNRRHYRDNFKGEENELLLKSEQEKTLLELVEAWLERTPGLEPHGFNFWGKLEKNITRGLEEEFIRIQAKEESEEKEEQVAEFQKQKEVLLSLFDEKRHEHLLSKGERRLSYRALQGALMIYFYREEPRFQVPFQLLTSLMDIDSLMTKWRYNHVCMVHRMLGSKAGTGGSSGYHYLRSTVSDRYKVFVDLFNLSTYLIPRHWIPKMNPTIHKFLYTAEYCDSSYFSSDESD
Protocol: 2) Testing Compounds for TDO Inhibitory Activity in a TDO2 Enzymatic Assay:
Recombinant human TDO comprising amino acids 19-407 with a N-terminal hexahistidine tag expressed in E. coli and purified to homogeneity is incubated at a final concentration of 15 nM in assay buffer consisting of 75 mM phosphate buffer at pH7 supplemented with 100 μM ascorbic acid, 50U/ml Catalase, 0.01% BSA, and 0.01% Tween 20 (protocol modified from Seegers et al, JBS 2014). Example compounds are serially diluted in DMSO, further diluted in phosphate buffer, and added to the reaction mixture at final concentrations ranging from 10 μM to 0.5 nM. The final DMSO concentration is 0.6%. Following a pre-incubation of 30 minutes at RT, the reaction is started by the addition of L-tryptophan at a final concentration of 200 μM in assay buffer. After 30 minutes of incubation at RT, 3 μL of the reaction mixture are transferred to a 384 deep well plate containing 25 μL of deionized water. 100 μl of 200 nM L-Tryptophan-(indole-d5) in cold 100% methanol are added followed by a 10 minutes centrifugation at 3220×g at 4° C. An additional 75 μL of deionized water are then added followed by a 10 minutes centrifugation at 3220×g at 4° C. The product of the reaction N′-Formylkynurenine (NFK) is quantified by LCMS and normalized to the L-Tryptophan-(indole-d5) signal. Samples with 0.6% DMSO (0% effect) and a TDO/IDO inhibitor (100% effect) are used as control samples to set the parameters for the non-linear regression necessary for the determination of the half-maximal inhibitory concentration (IC50) for each compound. For each compound concentration the percentage of activity compared to 0% and 100% effect is calculated as average±STDEV (each concentration measured in duplicate). IC50 values and curves are generated with XLfit software (IDBS) using Dose-Response One Site model 203 (four parameter logistic curve model). The calculated IC50 values may fluctuate depending on the daily assay performance. Fluctuations of this kind are known to those skilled in the art. When compounds are measured multiple times, mean values are given.

[2] = target: T2, Recombinant full-length human IDO1 (Homo sapiens, UniProt P14902); experiment: IDO1 enzymatic assay (NFK quantified by LCMS); assay type: biochemical; settings: 2 nM enzyme, 5 μM L-tryptophan, pH6.5, 30 minutes pre-incubation at RT; mean values when measured multiple times; read-out: hIDO activity (IC50 in nM)
T2 construct: Recombinant full-length human IDO1 with a N-terminal hexahistidine tag; hexahistidine (His6) (N); made in house; host or cells: E. coli
T2 sequence (P14902 whole entry): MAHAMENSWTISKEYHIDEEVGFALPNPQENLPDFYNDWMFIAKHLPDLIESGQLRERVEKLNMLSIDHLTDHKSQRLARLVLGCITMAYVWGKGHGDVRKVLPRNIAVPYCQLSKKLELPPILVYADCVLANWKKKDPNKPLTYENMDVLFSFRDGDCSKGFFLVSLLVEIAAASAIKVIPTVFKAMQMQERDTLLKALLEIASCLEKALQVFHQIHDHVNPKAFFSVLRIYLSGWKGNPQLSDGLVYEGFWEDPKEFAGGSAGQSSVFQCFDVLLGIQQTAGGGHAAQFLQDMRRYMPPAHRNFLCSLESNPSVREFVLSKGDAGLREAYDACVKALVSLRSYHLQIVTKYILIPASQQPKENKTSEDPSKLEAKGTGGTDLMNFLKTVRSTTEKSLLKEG
Protocol: 1) Testing Compounds for IDO Inhibitory Activity in an IDO1 Enzymatic Assay:
Recombinant full-length human IDO1 with a N-terminal hexahistidine tag expressed in E. coli and purified to homogeneity is incubated at a final concentration of 2 nM in assay buffer consisting of 37.5 mM phosphate buffer at pH6.5 supplemented with 10 mM ascorbic acid, 0.45 μM methylene blue, 50U/ml catalase, 0.01% BSA, and 0.01% Tween 20 (protocol modified from Seegers et al, JBS 2014). Example compounds are serially diluted in DMSO, further diluted in phosphate buffer, and added to the enzyme at final concentrations ranging from 10 μM to 0.5 nM. The final DMSO concentration is 0.6%. Following a pre-incubation of 30 minutes at RT, the reaction is started by the addition of L-tryptophan at a final concentration of 5 μM in assay buffer. After 30 minutes of incubation at RT, 3 μL of the 20 μl reaction mixture are transferred to a 384 deep well plate containing 25 μL of deionized water. 100 μl of 200 nM L-Tryptophan-(indole-d5) in cold 100% methanol are added followed by a 10 minutes centrifugation at 3220×g at 4° C. An additional 75 μL of deionized water are then added followed by a 10 minutes centrifugation at 3220×g at 4° C. The product of the reaction N′-Formylkynurenine (NFK) is quantified by LCMS and normalized to the L-Tryptophan-(indole-d5) signal. Samples with 0.6% DMSO (0% effect) and a TDO/IDO inhibitor (100% effect) are used as control samples to set the parameters for the non-linear regression necessary for the determination of the half-maximal inhibitory concentration (IC50) for each compound. For each compound concentration the percentage of activity compared to 0% and 100% effect is calculated as average±STDEV (each concentration measured in duplicate). IC50 values and curves are generated with XLfit software (IDBS) using Dose-Response One Site model 203 (four parameter logistic curve model). The calculated IC50 values may fluctuate depending on the daily assay performance. Fluctuations of this kind are known to those skilled in the art. When compounds are measured multiple times, mean values are given.

SMILES: CCc1sc2cncn2c1C(O)c1cn(-c2ccc3[nH]c(=O)oc3c2)nn1 (racemic) [Example 181, rac-6-{4-[(2-Ethyl-imidazo[5,1-b]thiazol-3-yl)-hydroxy-methyl]-[1,2,3]triazol-1-yl}-3H-benzooxazol-2-one]
- IC50 [1]: 4330 nM
- IC50 [2]: 7.86 nM

SMILES: Cn1cc(-n2cc(C(O)c3c(C4CC4)sc4cncn34)nn2)cn1 (racemic) [Example 43, rac-(2-Cyclopropyl-imidazo[5,1-b]thiazol-3-yl)-[1-(1-methyl-1H-pyrazol-4-yl)-1H-[1,2,3]triazol-4-yl]-methanol]
- IC50 [1]: > 10200 nM
- IC50 [2]: 95 nM

SMILES: COc1ccc(-n2cc(C(O)c3c(C4CC4)sc4cncn34)nn2)cc1I (racemic) [Example 291, rac-(2-Cyclopropyl-imidazo[5,1-b]thiazol-3-yl)-[1-(3-iodo-4-methoxy-phenyl)-1H-[1,2,3]triazol-4-yl]-methanol]
- IC50 [1]: > 10200 nM
- IC50 [2]: 41.1 nM

SMILES: COc1cc(C#N)cc(-n2cc(C(O)c3c(C4CC4)sc4cncn34)nn2)c1 (racemic) [Example 197, rac-3-{4-[(2-Cyclopropyl-imidazo[5,1-b]thiazol-3-yl)-hydroxy-methyl]-[1,2,3]triazol-1-yl}-5-methoxy-benzonitrile]
- IC50 [1]: > 10200 nM
- IC50 [2]: 52.4 nM

SMILES: N#Cc1cc(-n2cc(C(O)c3c(C4CC4)sc4cncn34)nn2)ccc1OC(F)(F)F (racemic) [Example 199, rac-5-{4-[(2-Cyclopropyl-imidazo[5,1-b]thiazol-3-yl)-hydroxy-methyl]-[1,2,3]triazol-1-yl}-2-trifluoromethoxy-benzonitrile]
- IC50 [1]: > 10200 nM
- IC50 [2]: 73.1 nM

SMILES: COc1ccc(-n2cc(C(O)c3c(C4CC4)sc4cncn34)cn2)cn1 (racemic) [Example 223, rac-(2-Cyclopropyl-imidazo[5,1-b]thiazol-3-yl)-[1-(6-methoxy-pyridin-3-yl)-1H-pyrazol-4-yl]-methanol]
- IC50 [1]: > 10200 nM
- IC50 [2]: 164 nM

SMILES: COc1ccc(-n2cc(C(O)c3c(C4CC4)sc4cncn34)nn2)cc1Cl (racemic) [Example 289, rac-[1-(3-Chloro-4-methoxy-phenyl)-1H-[1,2,3]triazol-4-yl]-(2-cyclopropyl-imidazo[5,1-b]thiazol-3-yl)-methanol]
- IC50 [1]: > 10200 nM
- IC50 [2]: 7.56 nM

SMILES: OC(c1cn(-c2ccc(N3CCOCC3)cc2)nn1)c1c(C2CC2)sc2cncn12 (racemic) [Example 38, rac-(2-Cyclopropyl-imidazo[5,1-b]thiazol-3-yl)-[1-(4-morpholin-4-yl-phenyl)-1H-[1,2,3]triazol-4-yl]-methanol]
- IC50 [1]: > 10200 nM
- IC50 [2]: 72.7 nM

SMILES: CCNC(=O)Nc1ccc(-n2cc(C(O)c3c(CC)sc4cncn34)nn2)cc1OC (racemic) [Example 113, rac-1-Ethyl-3-(4-{4-[(2-ethyl-imidazo[5,1-b]thiazol-3-yl)-hydroxy-methyl]-[1,2,3]triazol-1-yl}-2-methoxy-phenyl)-urea]
- IC50 [1]: 7720 nM
- IC50 [2]: 14.3 nM

SMILES: CCOc1ccc(-n2cc(C(O)c3c(CC)sc4cncn34)nn2)cn1 (racemic) [Example 46, rac-[1-(6-Ethoxy-pyridin-3-yl)-1H-[1,2,3]triazol-4-yl]-(2-ethyl-imidazo[5,1-b]thiazol-3-yl)-methanol]
- IC50 [1]: > 10200 nM
- IC50 [2]: 14.3 nM

SMILES: CC(=O)Nc1ccc(-n2cc(C(O)c3c(C4CC4)sc4cncn34)cn2)cc1 (racemic) [Example 224, rac-N-(4-{4-[(2-Cyclopropyl-imidazo[5,1-b]thiazol-3-yl)-hydroxy-methyl]-pyrazol-1-yl}-phenyl)-acetamide]
- IC50 [1]: > 10200 nM
- IC50 [2]: 1100 nM

SMILES: CN(C)C(=O)c1ccc(-n2cc(C(O)c3c(C4CC4)sc4cncn34)nn2)cc1 (racemic) [Example 195, rac-4-{4-[(2-Cyclopropyl-imidazo[5,1-b]thiazol-3-yl)-hydroxy-methyl]-[1,2,3]triazol-1-yl}-N,N-dimethyl-benzamide]
- IC50 [1]: > 10200 nM
- IC50 [2]: 145 nM

SMILES: Cc1sc2cncn2c1C(O)c1ccc(-c2ccccc2)s1 (racemic) [Example 154, rac-(2-Methyl-imidazo[5,1-b]thiazol-3-yl)-(5-phenyl-thiophen-2-yl)-methanol]
- IC50 [1]: 7270 nM
- IC50 [2]: 366 nM

SMILES: C=C(C)c1sc2cncn2c1C(O)c1cn(-c2ccc(OCCCO)c(Cl)c2)nn1 (racemic) [Example 301, rac-3-(2-Chloro-4-{4-[hydroxy-(2-isopropenyl-imidazo[5,1-b]thiazol-3-yl)-methyl]-[1,2,3]triazol-1-yl}-phenoxy)-propan-1-ol]
- IC50 [1]: > 10200 nM
- IC50 [2]: 25.1 nM

SMILES: CN1CCCC(COc2ccc(-n3cc(C(O)c4c(C5CC5)sc5cncn45)nn3)cc2)C1 (stereo not drawn) [Example 146, (2-Cyclopropyl-imidazo[5,1-b]thiazol-3-yl)-{1-[4-(1-methyl-piperidin-3-ylmethoxy)-phenyl]-1H-[1,2,3]triazol-4-yl}-methanol]
- IC50 [1]: > 10200 nM
- IC50 [2]: 44.4 nM

SMILES: CCNC(=O)Nc1ccc(-n2cc(C(O)c3c(C4CC4)sc4cncn34)nn2)cc1OC (racemic) [Example 183, rac-1-(4-{4-[(2-Cyclopropyl-imidazo[5,1-b]thiazol-3-yl)-hydroxy-methyl]-[1,2,3]triazol-1-yl}-2-methoxy-phenyl)-3-ethyl-urea]
- IC50 [1]: > 10200 nM
- IC50 [2]: 15.5 nM

SMILES: Oc1ccc(-n2cc(C(O)c3c(-c4ccccc4)sc4cncn34)nn2)cc1Cl (racemic) [Example 264, rac-2-Chloro-4-{4-[hydroxy-(2-phenyl-imidazo[5,1-b]thiazol-3-yl)-methyl]-[1,2,3]triazol-1-yl}-phenol]
- IC50 [1]: 5890 nM
- IC50 [2]: 93.9 nM

SMILES: COc1cc(F)c(-n2nnc(C(O)c3c(C4CC4)sc4cncn34)c2C)cc1Cl (racemic) [Example 333, rac-[1-(5-Chloro-2-fluoro-4-methoxy-phenyl)-5-methyl-1H-[1,2,3]triazol-4-yl]-(2-cyclopropyl-imidazo[5,1-b]thiazol-3-yl)-methanol]
- IC50 [1]: > 10200 nM
- IC50 [2]: 1.46 nM

SMILES: COC(=O)Nc1ccc(-n2cc(C(O)c3c(C)sc4cncn34)nn2)cc1 (racemic) [Example 58, rac-(4-{4-[Hydroxy-(2-methyl-imidazo[5,1-b]thiazol-3-yl)-methyl]-[1,2,3]triazol-1-yl}-phenyl)-carbamic Acid Methyl Ester]
- IC50 [1]: 8050 nM
- IC50 [2]: 69.1 nM

SMILES: CC(C)Oc1ccc(-n2cc(C(O)c3c(C4CC4)sc4cncn34)nn2)cc1 (racemic) [Example 33, rac-(2-Cyclopropyl-imidazo[5,1-b]thiazol-3-yl)-[1-(4-isopropoxy-phenyl)-1H-[1,2,3]triazol-4-yl]-methanol]
- IC50 [1]: > 10200 nM
- IC50 [2]: 20 nM

SMILES: CN(C)S(=O)(=O)c1ccc(-n2cc(C(O)c3c(C4CC4)sc4cncn34)nn2)cc1 (racemic) [Example 236, rac-4-{4-[(2-Cyclopropyl-imidazo[5,1-b]thiazol-3-yl)-hydroxy-methyl]-[1,2,3]triazol-1-yl}-N,N-dimethyl-benzenesulfonamide]
- IC50 [1]: > 10200 nM
- IC50 [2]: 105 nM
